Test results reported in patent publication US7053055B2, “Compounds of unstable DP IV-inhibitors” (priority 1998, dated 2006).

Tests used:
DP IV [1] = biological target: T1, DP IV (Homo sapiens, UniProt P27487); test: Stability and DP IV-catalysed cleavage of the masked compound, MALDI-TOF mass spectrum of incubation batch; format: biochemical
Procedure: (§1) The active DP IV-inhibitor H-Val-Pro-CH2—(N^+C5H5) is released only as a result of the addition of the DP IV enzyme (used here by way of example also to release the DP IV-inhibitor) with removal of the N-terminal dipeptide H-Gly-Pro-OH. Accordingly, in the mass spectrum (FIG. 7) markedly more than 50% of the incubated compound according to the invention can be detected even after an incubation period of 60 minutes.

DP IV [2] = biological target: T1, DP IV; test: DP IV-catalysed hydrolysis of H-Gly-Pro-pNA in the presence of inhibitor (progress curves); format: biochemical
Procedure: When the DP IV target enzyme is incubated with unstable inhibitors in the presence of a substrate, inhibition of the enzyme is observed initially; the inhibition subsides again as the experimental time progresses as a result of the intramolecular cyclisation of the inhibitor which takes place in parallel, since the concentration of the inhibitor in the reaction solution decreases as a result of the spontaneously occurring chemical reaction. Because of the time-dependent drop in the concentration of the inhibitor, the rate of the enzyme-catalysed hydrolysis of the substrate increases again as time progresses.
as §1

[3] = Intramolecular cyclisation (stability) in 0.1 M HEPES buffer quantified by UV spectrometry; format: physicochemical; details: pH=7.6, 25° C.; for k (rate constant of intramolecular cyclisation): UV spectrometry
Procedure: The cyclisation reaction was monitored over a period of 40 minutes. The formation of the double bond system of the pyrazine, which takes place during the intramolecular reaction, enables quantitative analysis of the cyclisation process by means of UV spectrometry (FIG. 4). The rate constants determined there from for the intramolecular cyclisation of unstable DP IV-inhibitors in 0.1 M HEPES buffer, pH=7.6, 25° C., are shown in Table 1.

[4] = Intramolecular cyclisation in aqueous buffer solution monitored by MALDI-TOF mass spectrometry; format: physicochemical; details: aqueous buffer solution pH=7.6, MALDI-TOF MS
Text: The products of that reaction are the respective pyrazine derivatives (FIG. 1).

T1 sequence (P27487 whole entry): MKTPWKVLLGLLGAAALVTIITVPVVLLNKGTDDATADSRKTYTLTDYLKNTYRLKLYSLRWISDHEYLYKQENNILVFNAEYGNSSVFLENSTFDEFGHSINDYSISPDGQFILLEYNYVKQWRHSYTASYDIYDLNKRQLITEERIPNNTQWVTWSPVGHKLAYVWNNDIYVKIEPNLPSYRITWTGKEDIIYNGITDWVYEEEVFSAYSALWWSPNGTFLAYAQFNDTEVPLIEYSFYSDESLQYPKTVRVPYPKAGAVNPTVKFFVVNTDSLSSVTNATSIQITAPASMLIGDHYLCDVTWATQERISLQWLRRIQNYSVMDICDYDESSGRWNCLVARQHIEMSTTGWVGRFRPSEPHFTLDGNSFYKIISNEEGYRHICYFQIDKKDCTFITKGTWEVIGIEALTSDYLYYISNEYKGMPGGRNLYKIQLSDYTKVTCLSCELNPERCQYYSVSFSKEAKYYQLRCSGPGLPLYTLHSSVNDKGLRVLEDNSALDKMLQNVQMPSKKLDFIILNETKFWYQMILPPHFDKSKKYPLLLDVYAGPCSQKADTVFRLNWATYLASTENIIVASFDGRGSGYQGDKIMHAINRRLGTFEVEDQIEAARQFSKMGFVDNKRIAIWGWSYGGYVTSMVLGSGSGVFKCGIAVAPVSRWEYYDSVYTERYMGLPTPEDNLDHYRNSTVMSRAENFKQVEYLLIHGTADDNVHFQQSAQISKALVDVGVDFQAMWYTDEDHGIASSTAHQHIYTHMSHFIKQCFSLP

SMILES	Incubated compound still detectable in mass spectrum (DP IV [1]; incubation with 0.06 μg/ml DP IV, 0.1 M HEPES pH=7.6, 30° C., after 60 minutes)	Stability in buffered aqueous solution in the absence of an enzyme (DP IV [1]; over a period of 24 hours)	Duration of DP IV-inhibitory activity compared with the unstable DP IV-inhibitors (DP IV [2]; 2.6×10^−5 mol/litre compound, FIG. 8)	Inhibition of the target enzyme DP IV (DP IV [2]; substrate H-Gly-Pro-pNA, 0.06 μg/ml DP IV, 0.1 M HEPES pH=7.6, 30° C.)	half-life [3] [min]	k (rate constant of intramolecular cyclisation) [3] [min⁻¹]	Period within which breakdown to the cyclic pyrazine derivative is completed quantitatively [4] [min]
CC(C)C(NC(=O)C1CCCN1C(=O)CN)C(=O)N1CCCC1C(=O)C[n+]1ccccc1.[Cl-] (stereo not drawn) [H-Gly-Pro-Val-Pro-CH2—(N+C5H5), H-Gly-Pro-Val-Pro-CH2—(N^+C5H5)/C1^−]	more than 50%	stable	markedly prolonged activity	effective inhibition of the target enzyme			
CC(C)C(N)C(=O)N1CCCC1C(=O)C[n+]1ccccc1.[Cl-] (stereo not drawn) [H-Val-Pro-CH2-(N^+C5H5), H-Val-Pro-CH2—(N^+C5H5)/C1]					13.3	0.00087	≤ 60
NC(Cc1ccccc1)C(=O)N1CCCC1C(=O)C[n+]1ccccc1.[Cl-] (stereo not drawn) [H-Phe-Pro-CH2-(N^+C5H5), H-Phe-Pro-CH2—(N^+C5H5)/C1^−]					9.6	0.0012	≤ 30
